According to patent publication US10556879B2, “Retinoid compound, preparation method therefor, intermediates thereof and application thereof” (SHANGHAI INSTITUTE OF ORGANIC CHEMISTRY, CHINESE ACADEMY OF …, priority 2016, dated 2020):
Several values for one entry are separate records, joined by “and”; a condition that tells them apart may be missing. Equal entries are not always repeated. Entries after “also recorded” stand apart in the source; their conditions may differ. Where two headings read alike, the source gives them in different places.

Legend:
[1] = test system: tumor-repopulating cells of B16-F1 melanoma; experiment: Inhibitory activity on proliferation of tumor-repopulating cells (TRCs) of B16-F1 melanoma in 3D fibrin gel; assay type: cell-based; conditions: for IC50: colony tumor volume, read-out: IC50 of inhibition on TRCs of B16-F1 melanoma/μM
[2] = test system: tumor-repopulating cells of A549 lung cancer; experiment: Inhibition of proliferation of tumor-repopulating cells, colony tumor volume in 3D fibrin gel; assay type: cell-based, human; conditions: A549 TRCs
Method: (§1) Therefore, we further studied the inhibitory activity of this compound against tumor-repopulating cells of six other kinds of human tumor, including A549 lung cancer cell, MCF-7 breast cancer cell, MDA-MB-435S melanoma cell, A2780 ovarian cancer cell, Hs-746T gastric cancer cell, MDA-MB-231 breast cancer cell.
(§2) The above cancer cells were incubated with 3D fibrin gel medium (90-Pa) for 5 days, and the desired tumor-repopulating cells were screened. Subsequently, the culture medium was respectively treated with collagenase and neutral protease II, and the tumor-repopulating cells of B16-F1 melanoma were released, then the obtained repopulating cells were transferred to a freshly prepared medium to be resuspended and maintained at single-cell state. The tumor-repopulating cells of individual tumor were inoculated in 3D fibrin gel medium (90-Pa) for 5 days, with 0.1% DMSO as the negative control group (represented by DMSO group in FIGS. 3-8), the drug-free group as vehicle control group (represented by None group in FIGS. 3-8), and the study was performed by beginning administrating on the day 0 and the 3rd day respectively, and the colony tumor volume was measured and calculated.

[3] = test system: tumor-repopulating cells of Hs-746T gastric cancer; experiment: as above; assay type: cell-based, human; conditions: Hs-746T TRCs
Method: as §1, §2

[4] = test system: tumor-repopulating cells of MCF-7 breast cancer; experiment: as above; assay type: cell-based, human; conditions: MCF-7 TRCs
Method: as §1, §2

[5] = test system: tumor-repopulating cells of MDA-MB-435S melanoma; experiment: as above; assay type: cell-based, human; conditions: MDA-MB-435S TRCs
Method: as §1, §2

[6] = test system: tumor-repopulating cells of A2780 ovarian cancer; experiment: as above; assay type: cell-based, human; conditions: A2780 TRCs
Method: as §1, §2
as §2, with “The above human tumor cells were” for “The above cancer cells were”, “cells of B16-F1 melanoma were inoculated” for “cells of individual tumor were inoculated”, “group in FIG. 9), the drug-free” for “group in FIGS. 3-8), the drug-free”, “measured and calculated, beginning administrating from the 3rd day at a concentration of 0.1 μM, 1.0 μM, and 10 μM respectively, the colony tumor volume was measured and calculated.” for “measured and calculated.”

[7] = test system: tumor-repopulating cells of MDA-MB-231 breast cancer; experiment: as above; assay type: cell-based, human; conditions: MDA-MB-231 TRCs
Method: as §1, §2
as §2, with “The above human tumor cells were” for “The above cancer cells were”, “cells of B16-F1 melanoma were inoculated” for “cells of individual tumor were inoculated”, “group in FIG. 9), the drug-free” for “group in FIGS. 3-8), the drug-free”, “measured and calculated, beginning administrating from the 3rd day at a concentration of 0.1 μM, 1.0 μM, and 10 μM respectively, the colony tumor volume was measured and calculated.” for “measured and calculated.”

[8] = test system: 3T3 mouse embryonic fibroblast cells; experiment: In vitro toxicity on normal cells (proliferation, apoptosis); assay type: cell-based; conditions: 10 μM
Method: (§3) The 3T3 mouse embryonic fibroblast cells and B16-F1 melanoma cells were used as the model to study in vitro toxicity of WYC-209 and WYC-331 respectively. The effect of compound WYC-209 and WYC-331 on the proliferation of 3T3 mouse embryonic fibroblast cells and B16-F1 melanoma cells were studied at a concentration of 10 μM.

B16-F1 melanoma cells = experiment: In vitro effect on B16-F1 melanoma cells (proliferation, apoptosis) in the toxicity study; assay type: cell-based; conditions: 10 μM
Method: as §3

[9] = test system: B16-F1 metastatic melanoma in the lung; experiment: B16-F1 metastatic melanoma in the lung model, 30,000 tumor-repopulating cells via tail vein (WYC-209); assay type: in vivo, mice (C57BL/6); conditions: for mice that suffered pulmonary metastatic melanoma: 30th day, 8 mice
Method: This experiment was performed to study whether WYC-209 could inhibit the metastasis of melanoma to the lung thus prevent secondary tumorigenesis. The B16-F1 cells were incubated with 3D fibrin gel medium (90-Pa) for 5 days, and the desired tumor-repopulating cells were screened. Subsequently, the culture medium was respectively treated with collagenase and neutral protease II, and the tumor-repopulating cells were released, then the obtained repopulating cells were transferred to a freshly prepared medium to be re-suspended and maintained at single-cell state. Then 24 immunocompetent mice (C57BL/6, female, 6-8 weeks) were randomly selected and divided into three groups which were respectively low-dose group (1.0 μM), high-dose group (10 μM) and DMSO negative control group, with 8 mice per group. Subsequently, the mice were injected via the tail vein with 30,000 tumor-repopulating cells of melanoma to establish a B16-F1 metastatic melanoma model in the mouse. Subsequently, Mice were administered via tail vein injection based on the body weight and the blood volume of the mice. From the 5th day on, mice in the treatment group were administrated with WYC-209 once every 2 days at a blood concentration of 1.0 μM and 10 μM; mice in the DMSO group was administered with 0.1% DMSO in a same route of administration as negative control. At this time, there was no significant difference in the body weight between the groups, the mice were fed normally, observing the survival of the mice.

SMILES: CCOC(=O)c1cnc(C#Cc2ccc3c(c2)C(C)(C)CC[S+]3[O-])nc1 (stereo not shown) [WYC-209, ethyl 2-((4,4-dimethyl-1-oxothiochroman-6-yl)ethynyl)pyrimidin-5-carboxylate]
- inhibition at 10 µM ([1]; Mus musculus, B16-F1, 120 h, 10 μM, incubated 5 days, colony tumor size, read-out: Inhibition rate on TRCs of B16-F1 melanoma at a concentration of 10 μM (%)): 98.8%
- IC50 ([1]; Mus musculus, B16-F1, dose-response curve): 0.25 µM
- inhibition at 10 µM ([1]; Mus musculus, B16-F1, 10 μM (Table 3), read-out: Inhibition rate on TRCs of B16-F1 melanoma at a concentration of 10 μM/%): 98.8%
- IC50 ([1]; dose-response curve): 0.19 µM
- volume of tumor colony relative to None group ([2]; 1.0 μM): 25-30%
- volume of colony tumor relative to None group ([2]; 10 μM): less than 10%
- growth trend of colony tumor [3]: reverse the growth trend of colony tumor
- volume of tumor colony relative to None group ([3]; 1.0 μM): 25-30%
- volume of colony tumor relative to None group ([3]; 10 μM): less than 10%
- volume of tumor colony relative to None group ([4]; 1.0 μM): 25-30%
- volume of colony tumor relative to None group ([4]; 10 μM): less than 10%
- volume of tumor colony relative to None group ([5]; 1.0 μM): 25-30%
- volume of colony tumor relative to None group ([5]; 10 μM): less than 10%
- volume of tumor colony relative to None group ([6]; 1.0 μM): 25-30%
- volume of colony tumor relative to None group ([6]; 10 μM): less than 10%
- volume of tumor colony relative to None group ([7]; 1.0 μM): 25-30%
- volume of colony tumor relative to None group ([7]; 10 μM): less than 10%
- effect on proliferation of 3T3 mouse embryonic fibroblast cells [8]: did not affect the proliferation; also recorded: no effect on the growth of 3T3 cell clones
- induction of apoptosis of 3T3 mouse embryonic fibroblast cells [8]: did not induce apoptosis; also recorded: could not induce apoptosis
- effect on proliferation of B16-F1 melanoma cells (B16-F1 melanoma cells): significantly block the growth
- induction of apoptosis of B16-F1 melanoma cells (B16-F1 melanoma cells): significant cell apoptosis
- abnormalities in the liver and stomach ([9]; 1.0 μM treatment group): no abnormalities found in the liver and stomach
- abnormalities in the liver and stomach ([9]; 10 μM treatment group): no abnormalities found in the liver and stomach
- mice that suffered pulmonary metastatic melanoma ([9]; 1.0 μM treatment group): 50%
- mice that suffered pulmonary metastatic melanoma ([9]; 10 μM treatment group): 12.5%
- efficiency of preventing metastasis of repopulating cells of melanoma to the lung ([9]; blood concentration 1.0 μM): 50%
- efficiency of preventing metastasis of repopulating cells of melanoma to the lung ([9]; blood concentration 10 μM): 87.5% and 87%
- toxic side effects ([9]; whole experiment): no obvious toxic side effects
